Measured values: PubChem BioAssay AID1963449 (Molecular Pharmacology Branch, DTP, NCI, 2024)

Tested on: 596521-263-R-J1-PDC complex spheroid growth
Assay: Anticancer human tumor 596521-263-R-J1-PDC patient-derived soft tissue sarcoma cell line growth inhibition [Asc]
Details: for IC50: curve of first compound; for viability, T/C: stronger effect = lower value
In short: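 Complex spheroids combining tumor cells with HUVEC endothelial cells and human MSCs, at 37 degrees C, 5% CO2; agents tested alone or combined, half-log dilutions from at or near clinical Cmax, or 10 microM if Cmax unknown.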
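Also: spheroids exposed to compounds for 7 days.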

`O=C(c1cc(Cc2n[nH]c(=O)c3ccccc23)ccc1F)N1CCN(C(=O)C2CC2)CC1` + CNC(C)C(=O)NC1CN(S(=O)(=O)c2cccc(S(=O)(=O)N3CCC4CCC(C(=O)NC(c5ccccc5)c5ccccc5)N4C(=O)C(NC(=O)C(C)NC)C3)c2)CCC2CCC(C(=O)NC(c3ccccc3)c3ccccc3)N2C1=O was tested, and the IC50 (second compound 0.00316 µM) was < 31.6 nM, the IC50 (second compound 0.01 µM) was 2080 nM and the IC50 (second compound 0.0316 µM) was 4760 nM. It also gave an IC50 (second compound 0.1 µM) of 3650 nM, an IC50 (second compound 0.316 µM) of 2910 nM and an IC50 (second compound 1 µM) of 2230 nM. The viability, T/C (second compound 0.00316 µM, first compound 0.0316 µM) was 16.1%, the viability, T/C (second compound 0.00316 µM, first compound 0.1 µM) was 14.4% and the viability, T/C (second compound 0.00316 µM, first compound 0.316 µM) was 17.1%. For the same compound, the viability, T/C (second compound 0.00316 µM, first compound 1 µM) was 14.8%, the viability, T/C (second compound 0.00316 µM, first compound 3.16 µM) was 13.7% and the viability, T/C (second compound 0.00316 µM, first compound 10 µM) was 12.7%. The viability, T/C (second compound 0.01 µM, first compound 0.0316 µM) was 73.9%, the viability, T/C (second compound 0.01 µM, first compound 0.1 µM) was 61.2% and the viability, T/C (second compound 0.01 µM, first compound 0.316 µM) was 60.7%. It also gave a viability, T/C (second compound 0.01 µM, first compound 1 µM) of 64.3%, a viability, T/C (second compound 0.01 µM, first compound 3.16 µM) of 36.7% and a viability, T/C (second compound 0.01 µM, first compound 10 µM) of 45.1%. For the same compound, the viability, T/C (second compound 0.0316 µM, first compound 0.0316 µM) was 90.9%, the viability, T/C (second compound 0.0316 µM, first compound 0.1 µM) was 84.4% and the viability, T/C (second compound 0.0316 µM, first compound 0.316 µM) was 87.2%. For the same compound, the viability, T/C (second compound 0.0316 µM, first compound 1 µM) was 71.8%, the viability, T/C (second compound 0.0316 µM, first compound 3.16 µM) was 54.6% and the viability, T/C (second compound 0.0316 µM, first compound 10 µM) was 42.4%. The viability, T/C (second compound 0.1 µM, first compound 0.0316 µM) was 79.1%, the viability, T/C (second compound 0.1 µM, first compound 0.1 µM) was 73.4% and the viability, T/C (second compound 0.1 µM, first compound 0.316 µM) was 75.5%. For the same compound, the viability, T/C (second compound 0.1 µM, first compound 1 µM) was 78.1%, the viability, T/C (second compound 0.1 µM, first compound 3.16 µM) was 51.7% and the viability, T/C (second compound 0.1 µM, first compound 10 µM) was 37.7%. The viability, T/C (second compound 0.316 µM, first compound 0.0316 µM) was 77.4%, the viability, T/C (second compound 0.316 µM, first compound 0.1 µM) was 79.2% and the viability, T/C (second compound 0.316 µM, first compound 0.316 µM) was 80.5%. It also gave a viability, T/C (second compound 0.316 µM, first compound 1 µM) of 72.4%, a viability, T/C (second compound 0.316 µM, first compound 3.16 µM) of 48.4% and a viability, T/C (second compound 0.316 µM, first compound 10 µM) of 36%. The viability, T/C (second compound 1 µM, first compound 0.0316 µM) was 68.7%, the viability, T/C (second compound 1 µM, first compound 0.1 µM) was 71.5% and the viability, T/C (second compound 1 µM, first compound 0.316 µM) was 61.7%. It also gave a viability, T/C (second compound 1 µM, first compound 1 µM) of 69.1%, a viability, T/C (second compound 1 µM, first compound 3.16 µM) of 42.3% and a viability, T/C (second compound 1 µM, first compound 10 µM) of 31.3%.

With `Cn1ncnc1[C@H]1c2n[nH]c(=O)c3cc(F)cc(c23)N[C@@H]1c1ccc(F)cc1` + CCN1C(C(=O)NC23CCC(C(=O)O)(CC2)CC3)C(c2cccc(Cl)c2F)C2(C(=O)Nc3cc(Cl)ccc32)C12CCCCC2 the IC50 (second compound 0.00949 µM) was > 100 nM, the IC50 (second compound 0.03 µM) was > 100 nM and the IC50 (second compound 0.0949 µM) was > 100 nM. The IC50 (second compound 0.3 µM) was > 100 nM, the IC50 (second compound 0.949 µM) was > 100 nM and the IC50 (second compound 3 µM) was > 100 nM. For the same compound, the viability, T/C (second compound 0.00949 µM, first compound 0.000316 µM) was 109%, the viability, T/C (second compound 0.00949 µM, first compound 0.001 µM) was 94.8% and the viability, T/C (second compound 0.00949 µM, first compound 0.00316 µM) was 96.6%. For the same compound, the viability, T/C (second compound 0.00949 µM, first compound 0.01 µM) was 91.8%, the viability, T/C (second compound 0.00949 µM, first compound 0.0316 µM) was 88.4% and the viability, T/C (second compound 0.00949 µM, first compound 0.1 µM) was 81.8%. The viability, T/C (second compound 0.03 µM, first compound 0.000316 µM) was 103%, the viability, T/C (second compound 0.03 µM, first compound 0.001 µM) was 98.1% and the viability, T/C (second compound 0.03 µM, first compound 0.00316 µM) was 100%. It also gave a viability, T/C (second compound 0.03 µM, first compound 0.01 µM) of 105%, a viability, T/C (second compound 0.03 µM, first compound 0.0316 µM) of 90.1% and a viability, T/C (second compound 0.03 µM, first compound 0.1 µM) of 81.1%. It also gave a viability, T/C (second compound 0.0949 µM, first compound 0.000316 µM) of 104%, a viability, T/C (second compound 0.0949 µM, first compound 0.001 µM) of 102% and a viability, T/C (second compound 0.0949 µM, first compound 0.00316 µM) of 106%. It also gave a viability, T/C (second compound 0.0949 µM, first compound 0.01 µM) of 88.7%, a viability, T/C (second compound 0.0949 µM, first compound 0.0316 µM) of 87.8% and a viability, T/C (second compound 0.0949 µM, first compound 0.1 µM) of 78.6%. For the same compound, the viability, T/C (second compound 0.3 µM, first compound 0.000316 µM) was 104%, the viability, T/C (second compound 0.3 µM, first compound 0.001 µM) was 99.9% and the viability, T/C (second compound 0.3 µM, first compound 0.00316 µM) was 110%. The viability, T/C (second compound 0.3 µM, first compound 0.01 µM) was 108%, the viability, T/C (second compound 0.3 µM, first compound 0.0316 µM) was 104% and the viability, T/C (second compound 0.3 µM, first compound 0.1 µM) was 87.3%. The viability, T/C (second compound 0.949 µM, first compound 0.000316 µM) was 102%, the viability, T/C (second compound 0.949 µM, first compound 0.001 µM) was 91.2% and the viability, T/C (second compound 0.949 µM, first compound 0.00316 µM) was 91.2%. It also gave a viability, T/C (second compound 0.949 µM, first compound 0.01 µM) of 92.4%, a viability, T/C (second compound 0.949 µM, first compound 0.0316 µM) of 99.4% and a viability, T/C (second compound 0.949 µM, first compound 0.1 µM) of 85.5%. For the same compound, the viability, T/C (second compound 3 µM, first compound 0.000316 µM) was 76.4%, the viability, T/C (second compound 3 µM, first compound 0.001 µM) was 78.5% and the viability, T/C (second compound 3 µM, first compound 0.00316 µM) was 80.6%. The viability, T/C (second compound 3 µM, first compound 0.01 µM) was 70.3%, the viability, T/C (second compound 3 µM, first compound 0.0316 µM) was 75.3% and the viability, T/C (second compound 3 µM, first compound 0.1 µM) was 65.7%.
